# Patent US20100305183A1, “METHOD AND COMPOSITION FOR REDUCING REPERFUSION INJURY” (Adelaide Research & Innovation Pty Ltd, priority 2006, published 2010)
# Assays:
# Assay type in all cases: in vivo
# [1] = tested on: rats subject to ischaemia/reperfusion injury; assay: Rotarod test of motor function after reversible stroke and reperfusion; details: 2 h occlusion, over ensuing 7 days, FIG. 4
# Method: Anaesthetised rats were subject to 2 hours reversible stroke using the intraluminal thread model of middle cerebral artery occlusion. At 2 hours, reperfusion was initiated by withdrawing the thread and following a further 2 hours, N-acetyl-L-tryptophan (10^-5 mol/kg) or […],060 (1 mg/kg) was administered by intravenous injection.
# blood brain barrier [2] = assay: Evan's blue leakage into brain tissue following injury; details: dose-dependent, FIG. 1
# Source text: We chose to use the compound N-acetyl-L-tryptophan (NAT).
# blood brain barrier [3] = assay: Blood brain barrier permeability induced by injection of tPA in naïve (uninjured) animal; details: FIG. 2
# [4] = tested on: rats subject to ischaemia/reperfusion injury; assay: Oedema after reversible stroke (intraluminal thread model of middle cerebral artery occlusion) and reperfusion; details: 2 h occlusion, 10^−5 mol/kg intravenous 2 h after reperfusion, FIG. 3
# Method: To this end, anaesthetised rats were subject to 2 hours reversible stroke using the intraluminal thread model of middle cerebral artery occlusion. At 2 hours, reperfusion was initiated by withdrawing the thread and following a further 2 hours, N-acetyl-L-tryptophan (10^−5 mol/kg) was administered by intravenous injection. There was a significant increase in oedema at 24 h following ischaemia/reperfusion injury.
# [5] = tested on: IL-1β, IL-6 and TNFα mRNA; assay: RT-PCR of inflammatory cytokine mRNA in brain tissue after hypoxia and hypotension; details: rats, 10^−5 mol/kg intravenous after hypoxia and hypotension, 6 hours after injury, normalised to rpL32
# Method: In order to induce the inflammatory response associated with reperfusion, anaesthetised rats were subject to 15 minutes of hypoxia (PAO2 30-40 mmHg) and hypotension (MABP 40 mmHg), before blood oxygen level and blood pressure were restored to normal levels. In order to examine the effects of a substance P antagonist on the inflammatory response, N-acetyl-L-tryptophan was administered intravenously at a dose of 10^−5 mol/kg after hypoxia and hypotension. The expression of mRNA for the inflammatory cytokines IL-1β, IL-6 and TNFα in brain tissue was determined by reverse transcription followed by a polymerase chain reaction (RT-PCR). mRNA levels were normalised with respect to expression of rpL32. Brain tissue samples were collected at 6 hours after injury. Levels of expression of mRNA for the inflammatory cytokines were compared between non-ischaemic animals (control), ischaemic animals administered drug vehicle alone (ischaemia), and ischaemic animals administered a substance P receptor antagonist (NK1). mRNA expression was determined for IL-1β (FIG. 5a), IL-6 (FIG. 5b) and TNFα (FIG. 5c).
# IL-6 = assay: Serum IL-6 by ELISA after hypoxia and hypotension; details: rats; 10^−5 mol/kg intravenous after hypoxia and hypotension; blood at 6 hours after the insult; FIG. 6
# Method: In order to induce the inflammatory response associated with reperfusion, anaesthetised rats were subject to 15 minutes of hypoxia (PAO2 30-40 mmHg) and hypotension (MABP 40 mmHg), before blood oxygen level and blood pressure were restored to normal levels. In addition, serum interleukin 6 levels were also determined. Blood samples were collected at 6 hours after the insult. Changes in serum IL-6 levels were quantified using an enzyme-linked immunosorbent assay (ELISA). Serum levels of IL-6 were compared between animals that were not subject to ischaemia (control), animals subject to ischaemia followed by administration of drug vehicle alone (ischaemia), and animals subject to ischaemia followed by administration of a substance P receptor antagonist (NK1) (FIG. 6).
molecule,measurement,setting,value
"FC(F)(F)c1cc(CO[C@H]2CCCN[C@H]2c2ccccc2)cc(C(F)(F)F)c1 [L733,060]","functional outcome, rotarod test of motor function",[1]; 1 mg/kg intravenous 2 h after reperfusion,improved functional outcome
CC(=O)N[C@@H](Cc1c[nH]c2ccccc12)C(=O)O [N-acetyl-L-tryptophan],leakage of Evan's blue dye into the brain tissue (blood brain barrier closure),blood brain barrier [2],reduced leakage of Evan's blue dye into the brain tissue
same,permeability of the blood brain barrier induced by tPA,"blood brain barrier [3]; NAT 10^−5 mol/kg, tPA (Actilyse) injected to naïve (uninjured) animal",prevented the increased permeability of the blood brain barrier
same,oedema at 24 h following ischaemia/reperfusion injury,[4],significantly attenuated
same,"functional outcome, rotarod test of motor function",[1]; 10^−5 mol/kg intravenous 2 h after reperfusion,profound improvement in functional outcome
same,expression of IL-1β mRNA in brain tissue with respect to non-ischaemic animals,[5]; FIG. 5a,no significant differences
same,expression of IL-6 mRNA in brain tissue with respect to non-ischaemic animals,[5]; FIG. 5b,no significant differences
same,expression of TNFα mRNA in brain tissue with respect to non-ischaemic animals,[5]; FIG. 5c,no significant differences
same,increase in serum IL-6 levels,IL-6,this response was not observed
"tPA: tissue plasminogen activator, a thrombolytic agent",permeability of the blood brain barrier after tPA alone,blood brain barrier [3]; tPA (Actilyse) alone to naïve (uninjured) animal,increased permeability of the blood brain barrier
